Measured values reported in ChEMBL document CHEMBL5143581, “Design, synthesis and molecular docking studies of imidazole and benzimidazole linked ethionamide derivatives as inhibitors of InhA and antituberculosis agents” (Bioorg Med Chem Lett, 2022).
Values after ≈ are worked out from the molar mass of the structure shown.

Test system: Mycobacterium tuberculosis
Test: Antimycobacterial activity against InhA overexpressing Mycobacterium tuberculosis InhA-OE
Assay type: functional

Row | Structure (SMILES) | MIC [µM]
1 | Cn1c(NC(=O)c2cc(C(N)=S)ccn2)nc2cc(O)ccc21 | 0.54 (≈ 0.177 µg/mL)
2 | Cn1cc(O)nc1NC(=O)c1cc(C(N)=S)ccn1 | 1.99 (≈ 0.552 µg/mL)
3 | Cn1cc(C#N)nc1NC(=O)c1cc(C(N)=S)ccn1 | 2.53 (≈ 0.724 µg/mL)
4 | COc1ccc2c(c1)nc(NC(=O)c1cc(C(N)=S)ccn1)n2C | 0.72 (≈ 0.246 µg/mL)
5 | NNC(=O)c1ccncc1 [ISONIAZID] | 0.74 (≈ 0.101 µg/mL)
